Reference: PubChem BioAssay AID330 (DTP/NCI, 2004)
Several values for one entry are separate records, joined by “and”; a condition that tells them apart may be missing. Identical values can stand only once. Toxic doses and inconclusive results are not listed. Rule for the calls: active = survival T/C of 150% or more; inactive = T/C below 125% in these data.

Tested on: P388 leukemia ip, CD2F1 mice, survival T/C
Experiment: NCI In Vivo Anticancer Drug Screen. Data for tumor model P388 Leukemia (intraperitoneal) in CD2F1 (CDF1) mice
Details: endpoint: median survival time, higher = longer survival
In short: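 Mice carrying the transplanted tumor received test compound or vehicle. Survival was recorded in each group, and the value is the treated-group measurement divided by that of the vehicle-treated control group.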

[1] = dose: 50.0 mg/kg/injection, schedule: Q01DX005 (ip), vehicle: saline with Tween-80
[2] = dose: 100.0 mg/kg/injection, schedule: Q01DX005 (ip), vehicle: saline with Tween-80
[3] = dose: 200.0 mg/kg/injection, schedule: Q01DX005 (ip), vehicle: saline with Tween-80
[4] = dose: 60.0 mg/kg/injection, schedule: Q01DX005 (ip), vehicle: Klucel (hydroxypropylcellulose) (HPC)
[5] = dose: 120.0 mg/kg/injection, schedule: Q01DX005 (ip), vehicle: Klucel (hydroxypropylcellulose) (HPC)
[6] = dose: 240.0 mg/kg/injection, schedule: Q01DX005 (ip), vehicle: Klucel (hydroxypropylcellulose) (HPC)
[7] = dose: 100.0 mg/kg/injection, schedule: Q04DX003 (ip), vehicle: saline with Tween-80
[8] = dose: 200.0 mg/kg/injection, schedule: Q04DX003 (ip), vehicle: saline with Tween-80
[9] = dose: 50.0 mg/kg/injection, schedule: Q01DX005 (ip), vehicle: Klucel (hydroxypropylcellulose) (HPC)
[10] = dose: 100.0 mg/kg/injection, schedule: Q01DX005 (ip), vehicle: Klucel (hydroxypropylcellulose) (HPC)
[11] = dose: 200.0 mg/kg/injection, schedule: Q01DX005 (ip), vehicle: Klucel (hydroxypropylcellulose) (HPC)

Measured: T/C

O=[N+]([O-])c1ccc(N2CCN(c3ccccc3)CC2)c2nonc12
inactive: dose: 50.0 mg/kg/injection, schedule: Q01DX009 (ip), vehicle: suspension in saline 100 % of control | dose: 100.0 mg/kg/injection, schedule: Q01DX009 (ip), vehicle: suspension in saline 99 % of control | dose: 200.0 mg/kg/injection, schedule: Q01DX009 (ip), vehicle: suspension in saline 99 % of control and 100 % of control

CCN(CC)CCCC(c1ccccc1)c1ccccc1
inactive: dose: 12.5 mg/kg/injection, schedule: Q01DX005 (ip), vehicle: saline with Tween-80 99 % of control | dose: 25.0 mg/kg/injection, schedule: Q01DX005 (ip), vehicle: saline with Tween-80 94 % of control | [1] 99 % of control and 110 % of control

CN(C)c1ccc(/C=C/C2=[N+](C)c3ccccc3C2(C)C)cc1
inactive: dose: 0.03 mg/kg/injection, schedule: Q01DX009 (ip), vehicle: saline 110 % of control | dose: 0.07 mg/kg/injection, schedule: Q01DX009 (ip), vehicle: saline 97 % of control

O=C(S)CC(O)(c1ccccc1)c1ccccc1
inactive: dose: 100.0 mg/kg/injection, schedule: Q04DX003 (ip), vehicle: Klucel (hydroxypropylcellulose) (HPC) 105 % of control | dose: 200.0 mg/kg/injection, schedule: Q04DX003 (ip), vehicle: Klucel (hydroxypropylcellulose) (HPC) 105 % of control | dose: 400.0 mg/kg/injection, schedule: Q04DX003 (ip), vehicle: Klucel (hydroxypropylcellulose) (HPC) 101 % of control

CCCC1CCCCN1Cc1ccccc1 (centres undefined)
inactive: [1] 107 % of control | [2] 104 % of control

Cc1nn(C(=S)S)c(C)c1N=Nc1cc(Cl)ccc1Cl
inactive: [1] 100 % of control | [2] 95 % of control | [3] 95 % of control

CS(C)=O.CS(C)=O.CS(C)=O.CS(C)=O.[Cl][Ru][Cl]
inactive: [4] 105 % of control | dose: 100.0 mg/kg/injection, schedule: Q04DX003 (ip), vehicle: saline 97 % of control | [5] 101 % of control | dose: 200.0 mg/kg/injection, schedule: Q04DX003 (ip), vehicle: saline 99 % of control | [6] 107 % of control | dose: 400.0 mg/kg/injection, schedule: Q04DX003 (ip), vehicle: saline 92 % of control

Cc1cc(C)nc(NS(=O)(=O)c2ccc(NC(=S)Nc3ccccc3)cc2)n1
inactive: [1] 96 % of control | [2] 90 % of control | [3] 91 % of control

COc1cc(Cc2nc3n(O)cc(C)nc-3c(=N)n2)cc(OC)c1OC
inactive: dose: 12.5 mg/kg/injection, schedule: Q01DX009 (ip), vehicle: saline 99 % of control | dose: 25.0 mg/kg/injection, schedule: Q01DX009 (ip), vehicle: saline 105 % of control | dose: 50.0 mg/kg/injection, schedule: Q01DX009 (ip), vehicle: saline 108 % of control

C=C1COC(=O)C12CC1CCCC(C)C1(C)C2 (centres undefined)
inactive: dose: 4.0 mg/kg/injection, schedule: Q01DX009 (ip), vehicle: Klucel (hydroxypropylcellulose) (HPC) 93 % of control | dose: 8.0 mg/kg/injection, schedule: Q01DX009 (ip), vehicle: Klucel (hydroxypropylcellulose) (HPC) 96 % of control | dose: 16.0 mg/kg/injection, schedule: Q01DX009 (ip), vehicle: Klucel (hydroxypropylcellulose) (HPC) 94 % of control | dose: 32.0 mg/kg/injection, schedule: Q01DX009 (ip), vehicle: Klucel (hydroxypropylcellulose) (HPC) 102 % of control

CC(=O)Oc1ccccc1C(=O)O
inactive: dose: 31.3 mg/kg/injection, schedule: Q01DX009 (ip), vehicle: saline with Tween-80 90 % of control | dose: 50.0 mg/kg/injection, schedule: Q01DX009 (ip), vehicle: saline with Tween-80 99 % of control | dose: 62.5 mg/kg/injection, schedule: Q01DX009 (ip), vehicle: saline with Tween-80 100 % of control | dose: 100.0 mg/kg/injection, schedule: Q01DX009 (ip), vehicle: saline with Tween-80 107 % of control | dose: 125.0 mg/kg/injection, schedule: Q01DX009 (ip), vehicle: saline with Tween-80 104 % of control | dose: 200.0 mg/kg/injection, schedule: Q01DX009 (ip), vehicle: saline with Tween-80 95 % of control

Nc1cccc2c1C(=O)c1cccc(Cl)c1C2=O
inactive: [7] 104 % of control | [8] 104 % of control | dose: 400.0 mg/kg/injection, schedule: Q04DX003 (ip), vehicle: saline with Tween-80 100 % of control

N#Cc1c(O)c2c(c(O)c1C#N)C(=O)c1ccccc1C2=O
inactive: [1] 97 % of control | [2] 95 % of control | [3] 92 % of control

CCc1cc2nc3c(=O)[nH]c(=O)nc-3n(CCN(CCO)CCO)c2cc1CC
inactive: dose: 60.0 mg/kg/injection, schedule: Q01DX005 (ip), vehicle: saline with Tween-80 99 % of control | dose: 120.0 mg/kg/injection, schedule: Q01DX005 (ip), vehicle: saline with Tween-80 116 % of control | dose: 240.0 mg/kg/injection, schedule: Q01DX005 (ip), vehicle: saline with Tween-80 108 % of control

O=P(c1ccccc1)(c1ccccc1)c1ccccc1.O=P(c1ccccc1)(c1ccccc1)c1ccccc1.O=P(c1ccccc1)(c1ccccc1)c1ccccc1.O=P(c1ccccc1)(c1ccccc1)c1ccccc1.[Fe+3].[O-][Cl+3]([O-])([O-])O
inactive: [7] 97 % of control | [8] 93 % of control

CC1=C(C(=O)OCc2ccccc2)C(c2cccnc2)C(C(=O)OCc2ccccc2)=C(C)N1
inactive: dose: 25.0 mg/kg/injection, schedule: Q01DX009 (ip), vehicle: distilled water + Tween-80 91 % of control | dose: 50.0 mg/kg/injection, schedule: Q01DX009 (ip), vehicle: distilled water + Tween-80 100 % of control | dose: 100.0 mg/kg/injection, schedule: Q01DX009 (ip), vehicle: distilled water + Tween-80 100 % of control | dose: 200.0 mg/kg/injection, schedule: Q01DX009 (ip), vehicle: distilled water + Tween-80 98 % of control | dose: 400.0 mg/kg/injection, schedule: Q01DX009 (ip), vehicle: distilled water + Tween-80 105 % of control

N#CC1(c2ccccc2)C(c2ccccc2)=CC(=C2C(=O)NC(=O)N(c3ccccc3)C2=O)C=C1c1ccccc1 (centres undefined)
inactive: [9] 100 % of control | [10] 104 % of control | [11] 98 % of control

c1ccc(C23CN(Cc4ccccc42)Cc2ccccc23)cc1
inactive: dose: 100.0 mg/kg/injection, schedule: Q01DX001 (ip), vehicle: saline with Tween-80 95 % of control | dose: 200.0 mg/kg/injection, schedule: Q01DX001 (ip), vehicle: saline with Tween-80 88 % of control

c1ncn(C23CC4CC(CC(C4)C2)C3)n1
inactive: dose: 1.56 mg/kg/injection, schedule: Q01DX001 (ip), vehicle: Klucel (hydroxypropylcellulose) (HPC) 106 % of control | dose: 3.12 mg/kg/injection, schedule: Q01DX001 (ip), vehicle: Klucel (hydroxypropylcellulose) (HPC) 104 % of control | dose: 6.25 mg/kg/injection, schedule: Q01DX001 (ip), vehicle: Klucel (hydroxypropylcellulose) (HPC) 107 % of control and 96 % of control

CCCCN(CCO)CC(O)Cn1cnc2c(N)ncnc21 (centres undefined) (tested in a mixture with another compound)
inactive: dose: 60.0 mg/kg/injection, schedule: Q01DX005 (ip), vehicle: saline 94 % of control | dose: 120.0 mg/kg/injection, schedule: Q01DX005 (ip), vehicle: saline 97 % of control | dose: 240.0 mg/kg/injection, schedule: Q01DX005 (ip), vehicle: saline 94 % of control

CCOc1c(N=Nc2ccc(Cl)cc2)c(C)nn1C(N)=S
inactive: [4] 112 % of control | [5] 112 % of control | [6] 112 % of control

O=C(O)CCCCSCCCCCCSCCCCC(=O)O
inactive: [9] 106 % of control | [10] 105 % of control | [11] 107 % of control

CC(C)C(=O)CC(c1ccccc1)P(=O)(c1ccccc1)c1ccccc1 (centres undefined)
inactive: [9] 102 % of control | [10] 103 % of control | [11] 103 % of control
